Experimental data from patent US10426168B2, “Agent for controlling noxious arthropods” (Sumitomo Chemical Company, Limited, priority 2015, dated 2019).

Tested on: common house mosquitoes (Culex pipens pallens) at the last instar larval stages
Assay: Test Example 2: mortality of common house mosquito larvae in treated water
Type: in vivo
Settings: 24 h, 3.5 ppm in water, 30 last instar larvae, after 1 day
Procedure: Each of the formulations that were prepared in Formulation Example 15 containing Present compounds (1), (2), (3) and (4) was diluted with water so as to make a concentration of each of the compound 500 ppm, to obtain a diluted solution containing Present compounds (1), (2), (3) and (4), respectively. The above-mentioned diluted solutions were added to 100 mL of ion-exchanged water (Concentrations of Present compounds were 3.5 ppm). Thirty (30) heads of common house mosquitoes (Culex pipens pallens) at the last instar larval stages were released into the resulting diluted solutions having the concentration of 3.5 ppm, and after 1 day, the life and death of the insects were examined, and the mortality of insects was calculated by the following equation. Mortality (%)=(Number of the dead insects/Number of test insects)×100

Structure (SMILES) | mortality at 3.5 ppm
CC(C)(N)CNC(=O)c1cc(COCc2ccccc2)on1 [(1)] | ≥ 91%
CCCCc1cc(C(=O)NC(C)(C)C(C)(C)N)no1 [(4)] | ≥ 91%
CCCCc1cc(C(=O)NCC(C)(C)N)no1 [(3)] | ≥ 91%
CC(C)(N)CNC(=O)c1cc(COCc2ccc3ccccc3c2)on1 [(2)] | ≥ 91%
